Calls of active or inactive are those of the source. The calls are words filed in the database; no cut-off is given here.
Columns and labels:
[1] = Drug uptake in spleen of CD-1 nude mouse xenografted with PC3-PIP cells at 6 nM to 9 nM, iv measured at 4 hrs using 125I-labelled compound by gamma counter analysis; assay type: ADME, organism-based; details: in vivo, 0.006 µM
[2] = Drug uptake in kidney of CD-1 nude mouse xenografted with PC3-PIP cells at 6 nM to 9 nM, iv measured at 4 hrs using 125I-labelled compound by gamma counter analysis; assay type: ADME, organism-based; details: in vivo, 0.006 µM
[3] = Drug internalization in human PC3-PIP cells at 0.2 nM incubated for 2 hrs followed by compound washout measured using 125I-labelled compound by gamma counter analysis; assay type: ADME, cell-based; details: 0.0002 µM
[4] = Drug uptake in kidney of CD-1 nude mouse xenografted with PC3-PIP cells at 6 nM to 9 nM, iv measured at 1 hr using 125I-labelled compound by gamma counter analysis; assay type: ADME, organism-based; details: in vivo, 0.006 µM
[5] = target: T1, Glutamate carboxypeptidase 2 (Homo sapiens, UniProt Q04609); test: Binding affinity to PSMA in human PC3-PIP cells assessed as drug uptake per 10^6 cells at 0.2 nM incubated for 1 hr followed by compound washout measured using 125I-labelled compound by gamma counter analysis; assay type: ADME, cell-based; details: 0.0002 µM
Target sequence in this assay (Q04609 whole entry): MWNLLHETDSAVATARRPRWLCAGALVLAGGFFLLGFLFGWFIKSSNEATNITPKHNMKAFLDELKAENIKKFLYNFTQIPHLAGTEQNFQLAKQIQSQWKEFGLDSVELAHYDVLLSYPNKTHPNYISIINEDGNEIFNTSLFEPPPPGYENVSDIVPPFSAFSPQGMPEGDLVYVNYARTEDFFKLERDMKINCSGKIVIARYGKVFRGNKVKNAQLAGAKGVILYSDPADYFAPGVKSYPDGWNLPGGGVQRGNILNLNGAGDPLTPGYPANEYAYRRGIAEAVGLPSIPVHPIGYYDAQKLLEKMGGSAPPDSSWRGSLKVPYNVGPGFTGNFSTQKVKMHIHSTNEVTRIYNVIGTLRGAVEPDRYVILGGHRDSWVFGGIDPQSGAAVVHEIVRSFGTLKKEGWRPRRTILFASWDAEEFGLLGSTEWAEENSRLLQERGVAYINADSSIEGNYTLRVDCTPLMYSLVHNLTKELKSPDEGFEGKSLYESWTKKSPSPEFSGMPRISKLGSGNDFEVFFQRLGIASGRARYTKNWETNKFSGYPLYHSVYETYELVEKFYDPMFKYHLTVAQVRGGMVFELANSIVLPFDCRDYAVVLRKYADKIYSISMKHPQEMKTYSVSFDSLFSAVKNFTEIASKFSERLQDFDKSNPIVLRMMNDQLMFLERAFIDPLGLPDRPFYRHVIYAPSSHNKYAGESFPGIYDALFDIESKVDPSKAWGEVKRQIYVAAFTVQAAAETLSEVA

[6] = Drug uptake in human PC3-PIP cells at 0.2 nM incubated for 1 hr in presence of PSMA inhibitor PSMA-617 measured using 125I-labelled compound by gamma counter analysis; assay type: ADME, cell-based; details: 0.0002 µM
[7] = Drug uptake in tumor of CD-1 nude mouse xenografted with PC3-PIP cells at 6 nM to 9 nM, iv measured at 4 hrs using 125I-labelled compound by gamma counter analysis; assay type: ADME, organism-based, Neoplasm; details: in vivo, 0.006 µM
[8] = Drug internalization in human PC3-PIP cells at 0.2 nM incubated for 1 hr followed by compound washout measured using 125I-labelled compound by gamma counter analysis; assay type: ADME, cell-based; details: 0.0002 µM
[9] = Drug uptake in kidney of CD-1 nude mouse xenografted with PC3-PIP cells at 6 nM to 9 nM, iv measured after 2 mins to 1440 mins using 125I-labelled compound by gamma counter analysis; assay type: ADME, organism-based; details: in vivo, 0.006 µM
[10] = Drug uptake in human PC3-PIP cells at 0.2 nM incubated prior to compound washout measured using 125I-labelled compound by gamma counter analysis; assay type: ADME, cell-based; details: 0.0002 µM, TDE = time-dependent effect
[11] = Drug uptake in tumor of CD-1 nude mouse xenografted with PC3-PIP cells at 6 nM to 9 nM, iv measured at 1 hr using 125I-labelled compound by gamma counter analysis; assay type: ADME, organism-based, Neoplasm; details: in vivo, 0.006 µM
[12] = Clearance in tumor of CD-1 nude mouse xenografted with PC3-PIP cells at 6 nM to 9 nM, iv measured at 4 hrs using 125I-labelled compound by gamma counter analysis; assay type: ADME, organism-based, Neoplasm; details: in vivo, 0.006 µM
[13] = target: T1, Glutamate carboxypeptidase 2; test: Binding affinity to PSMA in human PC3-PIP cells assessed as drug uptake per 10^6 cells at 0.2 nM incubated for 2 hrs followed by compound washout measured using 125I-labelled compound by gamma counter analysis; assay type: ADME, cell-based; details: 0.0002 µM
Target sequence in this assay (Q04609 whole entry): as above

[14] = target: T1, Glutamate carboxypeptidase 2; test: Inhibition of […] binding to PSMA in human PC3-PIP cells at 0.2 nM incubated for 1 hr; assay type: cell-based
Target sequence in this assay (Q04609 whole entry, looked up): as the sequence (Q04609 whole entry) above

[15] = target: T1, Glutamate carboxypeptidase 2; test: Displacement of [125I]MIP-1095 from PSMA in human PC3-PIP cells after 1 hr by gamma counter analysis; assay type: cell-based
Target sequence in this assay (Q04609 whole entry): as above

[16] = Drug uptake in liver of CD-1 nude mouse xenografted with PC3-PIP cells at 6 nM to 9 nM, iv measured at 4 hrs using 125I-labelled compound by gamma counter analysis; assay type: ADME, organism-based; details: in vivo, 0.006 µM
[17] = Drug uptake in liver of CD-1 nude mouse xenografted with PC3-PIP cells at 6 nM to 9 nM, iv measured at 1 hr using 125I-labelled compound by gamma counter analysis; assay type: ADME, organism-based; details: in vivo, 0.006 µM
[18] = Drug uptake in liver of CD-1 nude mouse xenografted with PC3-PIP cells at 6 nM to 9 nM, iv measured at 24 hrs using 125I-labelled compound by gamma counter analysis; assay type: ADME, organism-based; details: in vivo, 0.006 µM
[19] = Drug uptake in tumor of CD-1 nude mouse xenografted with PC3-PIP cells at 6 nM to 9 nM, iv measured at 24 hrs using 125I-labelled compound by gamma counter analysis; assay type: ADME, organism-based, Neoplasm; details: in vivo, 0.006 µM
[20] = Drug uptake in kidney of CD-1 nude mouse xenografted with PC3-PIP cells at 6 nM to 9 nM, iv measured at 24 hrs using 125I-labelled compound by gamma counter analysis; assay type: ADME, organism-based; details: in vivo, 0.006 µM
[21] = Drug uptake in liver of CD-1 nude mouse xenografted with PC3-PIP cells at 6 nM to 9 nM, iv measured at 2 mins using 125I-labelled compound by gamma counter analysis; assay type: ADME, organism-based; details: in vivo, 0.006 µM
[22] = Drug uptake in large intestine of CD-1 nude mouse xenografted with PC3-PIP cells at 6 nM to 9 nM, iv measured at 4 hrs using 125I-labelled compound by gamma counter analysis; assay type: ADME, organism-based; details: in vivo, 0.006 µM
[23] = Drug uptake in small intestine of CD-1 nude mouse xenografted with PC3-PIP cells at 6 nM to 9 nM, iv measured at 1 hr using 125I-labelled compound by gamma counter analysis; assay type: ADME, organism-based; details: in vivo, 0.006 µM
[24] = Drug uptake in large intestine of CD-1 nude mouse xenografted with PC3-PIP cells at 6 nM to 9 nM, iv measured at 1 hr using 125I-labelled compound by gamma counter analysis; assay type: ADME, organism-based; details: in vivo, 0.006 µM
[25] = Uptake in kidney of CD-1 nude mouse xenografted with PC3-PIP cells at 6 nM to 9 nM, iv measured at 1 hr using 125I-labelled compound by gamma counter analysis; details: in vivo, 0.006 µM
[26] = Uptake in kidney of CD-1 nude mouse xenografted with PC3-PIP cells at 6 nM to 9 nM, iv measured at 24 hrs using 125I-labelled compound by gamma counter analysis; details: in vivo, 0.006 µM
[27] = Uptake in kidney of CD-1 nude mouse xenografted with PC3-PIP cells at 6 nM to 9 nM, iv measured at 4 hrs using 125I-labelled compound by gamma counter analysis; details: in vivo, 0.006 µM

Work on `O=C(O)CC[C@H](NC(=O)N[C@@H](CCCCNC(=O)[C@H](Cc1ccccc1)NC(=O)COc1ccc(C[C@H](NC(=O)[C@H](CCC(=O)O)NC(=O)c2ccc([125I])cc2)C(=O)O)cc1)C(=O)O)C(=O)O` yielded a Drug uptake [1] of 15.4 % ID/g, a Drug uptake [2] of 114.7 % ID/g and a Drug uptake [3] of 60%. For the same molecule, the Drug uptake [4] was 174.6 % ID/g, the Drug uptake [5] was 49 %ID and the Drug uptake [6] was “Not Active”. The Drug uptake [7] was 14.3 % ID/g, the Drug uptake [8] was 58% and the Drug uptake [9] was “Active”. The Drug uptake [10] was “Tde”, the Drug uptake [11] was 26.2 % ID/g and the CL [12] was 45%. It also gave a Drug uptake [13] of 76 %ID.

In the case of `O=C(O)CC[C@H](NC(=O)N[C@@H](CCCCNC(=O)[C@H](Cc1ccccc1)NC(=O)COc1ccc(C[C@H](NC(=O)[C@H](CCC(=O)O)NC(=O)[C@H](CCC(=O)O)NC(=O)c2ccc(I)cc2)C(=O)O)cc1)C(=O)O)C(=O)O`, the inhibition [14] is reported as “Active” and the IC50 [15] is reported as 3.52 nM.

In the case of `O=C(O)CC[C@H](NC(=O)N[C@@H](CCCCNC(=O)[C@H](Cc1ccccc1)NC(=O)[C@H](CCC(=O)O)NC(=O)[C@H](CCC(=O)O)NC(=O)c1ccc([125I])cc1)C(=O)O)C(=O)O`, the Drug uptake [2] is reported as 80.3 % ID/g, the Drug uptake [3] is reported as 47% and the Drug uptake [4] is reported as 71.8 % ID/g. For the same molecule, the Drug uptake [5] was 43 %ID, the Drug uptake [16] was 3.64 % ID/g and the Drug uptake [6] was “Not Active”. The Drug uptake [7] was 23.1 % ID/g, the Drug uptake [17] was 7.18 % ID/g and the Drug uptake [8] was 37%. The Drug uptake [9] was “Active”, the Drug uptake [18] was 0.17 % ID/g and the Drug uptake [10] was “Tde”. The Drug uptake [11] was 18.5 % ID/g, the Drug uptake [19] was 17 % ID/g and the Drug uptake [13] was 75 %ID. It also gave a Drug uptake [20] of 6.91 % ID/g.

With `O=C(O)CC[C@H](NC(=O)N[C@@H](CCCCNC(=O)Nc1ccc([125I])cc1)C(=O)O)C(=O)O` the Drug uptake [3] was 47%, the Drug uptake [5] was 40 %ID and the Drug uptake [16] was 6.45 % ID/g. For the same molecule, the Drug uptake [6] was “Not Active”, the Drug uptake [17] was 10.2 % ID/g and the Drug uptake [8] was 38%. For the same molecule, the Drug uptake [9] was “Active”, the Drug uptake [18] was 0.71 % ID/g and the Drug uptake [10] was “Tde”. It also gave a Drug uptake [13] of 53 %ID.

In the case of `O=C(O)CC[C@H](NC(=O)N[C@@H](CCCCNC(=O)[C@H](Cc1ccccc1)NC(=O)COc1ccc(C[C@H](NC(=O)Nc2ccc([125I])cc2)C(=O)O)cc1)C(=O)O)C(=O)O`, the Drug uptake [3] is reported as 76%, the Drug uptake [5] is reported as 31 %ID and the Drug uptake [21] is reported as 50.6 % ID/g. For the same molecule, the Drug uptake [22] was 51.4 % ID/g, the Drug uptake [23] was 49.7 % ID/g and the Drug uptake [6] was “Not Active”. For the same molecule, the Drug uptake [8] was 73%, the Drug uptake [9] was “Not Active” and the Drug uptake [10] was “Tde”. It also gave a Drug uptake [13] of 60 %ID.

With `O=C(O)CC[C@H](NC(=O)N[C@@H](CCCCNC(=O)[C@H](Cc1ccccc1)NC(=O)[C@H](CCC(=O)O)NC(=O)[C@H](CCC(=O)O)NC(=O)c1ccc(I)cc1)C(=O)O)C(=O)O` the inhibition [14] was “Active”.

For `O=C(O)CC[C@H](NC(=O)N[C@@H](CCCCNC(=O)[C@H](Cc1ccccc1)NC(=O)COc1ccc(C[C@H](NC(=O)Nc2ccc(I)cc2)C(=O)O)cc1)C(=O)O)C(=O)O`, the inhibition [14] was “Active” and the IC50 [15] was 13 nM.

In the case of `O=C(O)CC[C@H](NC(=O)N[C@@H](CCCCNC(=O)Nc1ccc(I)cc1)C(=O)O)C(=O)O` [MIP-1095], the IC50 [15] is reported as 3 nM.

In the case of `O=C(O)CC[C@H](NC(=O)N[C@@H](CCCCNC(=O)[C@H](Cc1ccccc1)NC(=O)COc1ccc(C[C@H](NC(=O)[C@H](CCC(=O)O)NC(=O)c2ccc(I)cc2)C(=O)O)cc1)C(=O)O)C(=O)O`, the inhibition [14] is reported as “Active”.

In the case of `O=C(O)CC[C@H](NC(=O)N[C@@H](CCCCNC(=O)[C@H](Cc1ccccc1)NC(=O)COc1ccc(C[C@H](NC(=O)CNC(=O)c2ccc([125I])cc2)C(=O)O)cc1)C(=O)O)C(=O)O`, the Drug uptake [3] is reported as 55%, the Drug uptake [5] is reported as 36 %ID and the Drug uptake [21] is reported as 29.4 % ID/g. The Drug uptake [22] was 9.98 % ID/g, the Drug uptake [6] was “Not Active” and the Drug uptake [8] was 51%. For the same molecule, the Drug uptake [9] was “Not Active”, the Drug uptake [24] was 21.6 % ID/g and the Drug uptake [10] was “Tde”. For the same molecule, the Drug uptake [13] was 52 %ID.

For `O=C(O)CC[C@H](NC(=O)N[C@@H](CCCCNC(=O)[C@H](Cc1ccccc1)NC(=O)[C@H](CCC(=O)O)NC(=O)c1ccc([125I])cc1)C(=O)O)C(=O)O`, the Drug uptake [2] was 25.4 % ID/g, the Drug uptake [3] was 45% and the Drug uptake [4] was 41.4 % ID/g. The Drug uptake [5] was 43 %ID, the Drug uptake [6] was “Not Active” and the Drug uptake [7] was 5.17 % ID/g. The Drug uptake [8] was 36%, the Drug uptake [9] was “Active” and the Drug uptake [10] was “Tde”. For the same molecule, the Drug uptake [11] was 10.7 % ID/g and the Drug uptake [13] was 76 %ID.

For `O=C(O)CC[C@H](NC(=O)N[C@@H](CCCCNC(=O)[C@H](Cc1ccccc1)NC(=O)COc1ccc(C[C@H](NC(=O)CNC(=O)c2ccc(I)cc2)C(=O)O)cc1)C(=O)O)C(=O)O`, the inhibition [14] was “Active” and the IC50 [15] was 1.33 nM.

In the case of `O=C(O)CC[C@H](NC(=O)N[C@@H](CCCCNC(=O)[C@H](Cc1ccccc1)NC(=O)COc1ccc(C[C@H](NC(=O)[C@H](CCC(=O)O)NC(=O)[C@H](CCC(=O)O)NC(=O)c2ccc([125I])cc2)C(=O)O)cc1)C(=O)O)C(=O)O`, the Drug uptake [25] is reported as 127.8 % ID/g, the Drug uptake [3] is reported as 64% and the Drug uptake [5] is reported as 39 %ID. The Drug uptake [6] was “Not Active”, the Drug uptake [26] was 136.4 % ID/g and the Drug uptake [7] was 17.4 % ID/g. For the same molecule, the Drug uptake [8] was 62%, the Drug uptake [9] was “Active” and the Drug uptake [10] was “Tde”. For the same molecule, the Drug uptake [27] was 138.1 % ID/g, the Drug uptake [11] was 17.2 % ID/g and the Drug uptake [19] was 11.1 % ID/g. The Drug uptake [13] was 67 %ID.

With `O=C(O)CC[C@H](NC(=O)N[C@@H](CCCCNC(=O)[C@H](Cc1ccccc1)NC(=O)[C@H](CCC(=O)O)NC(=O)c1ccc(I)cc1)C(=O)O)C(=O)O` the inhibition [14] was “Active”.

Reference: ChEMBL document CHEMBL4627264, “Synthesis and evaluation of novel radioiodinated PSMA targeting ligands for potential radiotherapy of prostate cancer” (Bioorg Med Chem, 2020)
